Assay results reported in patent US6436630B1, “Method for testing the toxicity of chemical substances using gastropods” (priority 1998, dated 2002).
Structures can show the parent of a compound that is named as a salt. Where two headings read alike, the source gives them in different places.

Experiments:
[1] = tested on: foot mucosa of slugs of species Arion; assay: Slug mucosal toxicity test, Example 2 (15 min daily treatment, four days); details: in vivo; for % MP, mucus production as % of the body weight at the start of the day before the treatment / ALP released into PBS / Protein released into PBS: Arion (slug)
Description: As test substance a β-blocking agent propranolo HCl (1% w/v) was used. Benzalkonium chloride (1% w/v) and Propranolol (1% w/v) were prepared in PBS (pH 7.4). The slugs were daily incubated during 15 min with the test solution during four days. After the incubation period the slugs were placed on 500 μL PBS in a petri dish. The PBS was sampled every hour and refreshed with 500 μL PBS for 3 hours after the treatment.
The enzymes (LDH, ALP) and the total protein released into the PBS were determined. The change in body weight and the mucus production caused by the treatment were examined.

[2] = tested on: foot mucosa of slugs of species Arion; format: in vivo; details: for ALP released into PBS / LDH released into PBS / Protein released into PBS: 1% w/v (HPβCD 5% w/v), total mean of 7 samples/day per slug
[3] = tested on: foot mucosa of slugs of species Limax; format: in vivo; details: for % MP, mucus production as % of the body weight at the start of the day before the treatment: 1% w/v (HPβCD 5% w/v) in PBS, 15 min; for ALP released into PBS / LDH released into PBS / Protein released into PBS: 1% w/v (HPβCD 5% w/v), total mean of 7 samples/day per slug
Description: Slugs of the species Limax are terrestial slugs have lungs and also a small internal shell. As test substances hydroxypropyl-β-cyclodextrin (HPβCD), sodium tauro-24,25-dihdrofiisidate (STDHF) and sodium deoxycholate were selected. Benzalkonium chloride (1% w/v), HPβCD (5% w/v), STDHF (1% w/v) and SDC (1% w/v) were prepared in phosphate buffered saline (PBS, pH 7.4).
The enzymes lactate dehydrogenase (LDH) and alkaline phosphatase (ALP) and total protein released into the PBS were determined. The change in body weight and mucus production caused by the treatment were examined.

CC(C)NCC(O)COc1cccc2ccccc12 (centres unmarked) [Propr, propranolol HCl]
% MP, mucus production as % of the body weight at the start of the day before the treatment ([1]; 1 day): 0.77%
ALP released into PBS ([1]; 1 day): 0.35 U/L
Protein released into PBS ([1]; 1 day): 4.89 μg/30 μL
% MP, mucus production as % of the body weight at the start of the day before the treatment ([1]; 2 day): 3.74%
ALP released into PBS ([1]; 2 day): 2.19 U/L
Protein released into PBS ([1]; 2 day): 31.61 μg/30 μL
% MP, mucus production as % of the body weight at the start of the day before the treatment ([1]; 3 day): 3.11%
ALP released into PBS ([1]; 3 day): 17.50 U/L
Protein released into PBS ([1]; 3 day): 31.36 μg/30 μL
% MP, mucus production as % of the body weight at the start of the day before the treatment ([1]; 4 day): 2.80%
ALP released into PBS ([1]; 4 day): 18.43 U/L
Protein released into PBS ([1]; 4 day): 20.88 μg/30 μL
colour of the mucus excreted by the slugs [1]: orange coloured
irritation (in words) [1]: considerable irritation
membrane damage (in words) [1]: severe membrane damage
survival of the slugs [1]: all the slugs were dead

CC(=O)OC1CC2(C)C(CC(O)C3C4(C)CCC(O)C(C)C4CCC32C)C1=C(CCCC(C)C)C(=O)NCCS(=O)(=O)O (centres unmarked) [STDHF, sodium tauro-24,25-dihdrofiisidate]
ranking order of increasing toxicity ([2]; Arion): PBS, 5% HPβCD<1% STDHF<1% SDC and 1% BAC
LDH release (in words) ([2]; Arion, 1% w/v): slightly increased LDH release
body weight change (in words) ([2]; Arion, 1% w/v): decrease in body weight
mucus production (in words) ([2]; Arion, HPβCD 5% w/v, STDHF 1% w/v): increased mucus production
% MP, mucus production ([2]; day 1, Arion, 1% w/v (HPβCD 5% w/v) in PBS, 15 min): 7.7%
ALP released into PBS ([2]; day 1, Arion): 21.77 U/L
LDH released into PBS ([2]; day 1, Arion): 18.22 U/L
Protein released into PBS ([2]; day 1, Arion): 15.68 μg/30μL
% MP, mucus production ([2]; day 2, Arion, 1% w/v (HPβCD 5% w/v) in PBS, 15 min): 3.85%
ALP released into PBS ([2]; day 2, Arion): 9.39 U/L
LDH released into PBS ([2]; day 2, Arion): 14.44 U/L
Protein released into PBS ([2]; day 2, Arion): 2.84 μg/30μL
% MP, mucus production ([2]; day 3, Arion, 1% w/v (HPβCD 5% w/v) in PBS, 15 min): 3.45%
ALP released into PBS ([2]; day 3, Arion): 8.66 U/L
LDH released into PBS ([2]; day 3, Arion): 24.04 U/L
Protein released into PBS ([2]; day 3, Arion): 2.79 μg/30μL
% MP, mucus production ([2]; day 4, Arion, 1% w/v (HPβCD 5% w/v) in PBS, 15 min): 4.81%
ALP released into PBS ([2]; day 4, Arion): 15.14 U/L
LDH released into PBS ([2]; day 4, Arion): 20.53 U/L
Protein released into PBS ([2]; day 4, Arion): 4.55 μg/30μL
% MP, mucus production ([2]; day 5, Arion, 1% w/v (HPβCD 5% w/v) in PBS, 15 min): 4.41%
ALP released into PBS ([2]; day 5, Arion): 4.81 U/L
LDH released into PBS ([2]; day 5, Arion): 25.65 U/L
Protein released into PBS ([2]; day 5, Arion): 4.18 μg/30μL
ranking order of increasing toxicity ([3]; Limax): PBS, 5% HPβCD<1% STDHF<1% SDC and 1% BAC
LDH release (in words) ([3]; Limax, 1% w/v): slightly increased LDH release
body weight change (in words) ([3]; Limax, 1% w/v): decrease in body weight
mucus production (in words) ([3]; Limax, HPβCD 5% w/v, STDHF 1% w/v): increased mucus production
% MP, mucus production as % of the body weight at the start of the day before the treatment ([3]; day 1, Limax): 6.85%
ALP released into PBS ([3]; day 1, Limax): 3.81 U/L
LDH released into PBS ([3]; day 1, Limax): 1.65 U/L
Protein released into PBS ([3]; day 1, Limax): 14.48 μg/30μL
% MP, mucus production as % of the body weight at the start of the day before the treatment ([3]; day 2, Limax): 6.16%
ALP released into PBS ([3]; day 2, Limax): 6.49 U/L
LDH released into PBS ([3]; day 2, Limax): 4.29 U/L
Protein released into PBS ([3]; day 2, Limax): 11.67 μg/30μL
% MP, mucus production as % of the body weight at the start of the day before the treatment ([3]; day 3, Limax): 7.52%
ALP released into PBS ([3]; day 3, Limax): 5.09 U/L
LDH released into PBS ([3]; day 3, Limax): 6.02 U/L
Protein released into PBS ([3]; day 3, Limax): 6.27 μg/30μL
% MP, mucus production as % of the body weight at the start of the day before the treatment ([3]; day 4, Limax): 6.75%
ALP released into PBS ([3]; day 4, Limax): 3.28 U/L
LDH released into PBS ([3]; day 4, Limax): 18.23 U/L
Protein released into PBS ([3]; day 4, Limax): 10.4 μg/30μL
% MP, mucus production as % of the body weight at the start of the day before the treatment ([3]; day 5, Limax): 6.6%
ALP released into PBS ([3]; day 5, Limax): 3.62 U/L
LDH released into PBS ([3]; day 5, Limax): 10.63 U/L
Protein released into PBS ([3]; day 5, Limax): 10.36 μg/30μL

hydroxypropyl-β-cyclodextrin [HPβCD]
% MP, mucus production ([2]; in vivo): 0%
mucus production (in words) ([2]; in vivo): no mucus production
protein and enzyme release (in words) ([2]; in vivo): low protein and enzyme release
ranking order of increasing toxicity ([2]; in vivo): PBS, 5% HPβCD<1% STDHF<1% SDC and 1% BAC
mucus production (in words) ([3]; in vivo): no mucus production
protein and enzyme release (in words) ([3]; in vivo): low protein and enzyme release
ranking order of increasing toxicity ([3]; in vivo): PBS, 5% HPβCD<1% STDHF<1% SDC and 1% BAC
